The source of these data is ChEMBL document CHEMBL5344406, “1,2,3-Triazole-containing hybrids with potential antibacterial activity against ESKAPE pathogens” (2022).

Holding throughout (assay type): functional
Assay [1] deals with Pseudomonas aeruginosa. The assay can be described thus: Antibacterial activity against Pseudomonas aeruginosa assessed as bacterial growth inhibition incubated for 24 hrs by serial dilution method.
The test system of the next assay is Salmonella enterica. The assay can be described thus: Antibacterial activity against Salmonella enterica assessed as bacterial growth inhibition incubated for 24 hrs by serial dilution method.
In assay [2] the test system is Escherichia coli. Put plainly: Antibacterial activity against Escherichia coli assessed as bacterial growth inhibition incubated for 24 hrs by serial dilution method.
The test system of assay [3] is Bacillus subtilis. Put plainly: Antibacterial activity against Bacillus subtilis assessed as bacterial growth inhibition incubated for 24 hrs by serial dilution method.
Assay [4] deals with Staphylococcus aureus. The assay can be described thus: Antibacterial activity against Staphylococcus aureus assessed as bacterial growth inhibition incubated for 24 hrs by serial dilution method.
For assay [5], the system named is Staphylococcus aureus. Put plainly: Antibacterial activity against Staphylococcus aureus assessed as bacterial growth inhibition by broth dilution method.
For assay [6], the system named is Staphylococcus aureus. Put plainly: Potency index, ratio of Norfloxacin MIC to test compound MIC for antibacterial activity against Staphylococcus aureus assessed as bacterial growth inhibition by broth dilution method.
For assay [7], the system named is Staphylococcus aureus. Put plainly: Antibacterial activity against multidrug-resistant Staphylococcus aureus clinical isolate assessed as bacterial growth inhibition by broth dilution method.
The test system of assay [8] is Staphylococcus aureus. Put plainly: Antibacterial activity against Staphylococcus aureus Viotko assessed as bacterial growth inhibition incubated for 1 to 2 days by serial dilution method. To be noted: time 1-2 day.
Assay [9] has as its system Staphylococcus aureus. Put plainly: Antibacterial activity against Staphylococcus aureus C-18 clinical isolate assessed as bacterial growth inhibition incubated for 1 to 2 days by serial dilution method. Particulars: time 1-2 day.
In assay [10] the test system is Staphylococcus aureus. The assay can be described thus: Antibacterial activity against Staphylococcus aureus 209p ATCC 6538P assessed as bacterial growth inhibition incubated for 1 to 2 days by serial dilution method. Particulars: time 1-2 day.
The test system of assay [11] is Escherichia coli. Put plainly: Potency index, ratio of Ciprofloxacin MIC to test compound MIC for antibacterial activity against Escherichia coli MTCC 1687 assessed as bacterial growth inhibition by serial dilution method.
For assay [12], the system named is Staphylococcus aureus. The assay can be described thus: Potency index, ratio of Ciprofloxacin MIC to test compound MIC for antibacterial activity against Staphylococcus aureus MTCC 737 assessed as bacterial growth inhibition by serial dilution method.
The test system of assay [13] is Escherichia coli. Put plainly: Antibacterial activity against Escherichia coli MTCC 1687 assessed as bacterial growth inhibition by serial dilution method.
The test system of assay [14] is Staphylococcus aureus. Put plainly: Antibacterial activity against Staphylococcus aureus MTCC 737 assessed as bacterial growth inhibition by serial dilution method.
For assay [15], the system named is Pseudomonas aeruginosa. The assay can be described thus: Potency index, ratio of Ciprofloxacin MIC to test compound MIC for antibacterial activity against Pseudomonas aeruginosa assessed as bacterial growth inhibition by serial dilution method.
In assay [16] the test system is Pseudomonas aeruginosa. Put plainly: Antibacterial activity against Pseudomonas aeruginosa assessed as bacterial growth inhibition by serial dilution method.
The subject of assay [17] is Staphylococcus aureus. The assay can be described thus: Antibacterial activity against Staphylococcus aureus ATCC 29213 assessed as bacterial growth inhibition incubated for 24 hrs by CLSI based broth dilution method.
Assay [18] has as its system Staphylococcus aureus. The assay can be described thus: Potency index, ratio of Pleuromutilin MIC to test compound MIC for antibacterial activity against Staphylococcus aureus clinical isolate 144 incubated for 24 hrs by CLSI based broth dilution method.
Assay [19] has as its system Staphylococcus aureus. The assay can be described thus: Potency index, ratio of Pleuromutilin MIC to test compound MIC for antibacterial activity against Staphylococcus aureus ATCC 43300 incubated for 24 hrs by CLSI based broth dilution method.
For assay [20], the system named is Staphylococcus aureus. The assay can be described thus: Antibacterial activity against methicillin-resistant Staphylococcus aureus ATCC 43300 infected in neutropenic mouse model of thigh infection assessed as reduction in bacterial load at 20 mg/kg, iv measured after 24 hrs by colony counting method.
Assay [21] deals with Staphylococcus aureus. Put plainly: Antibacterial activity against Staphylococcus aureus clinical isolate 144 assessed as bacterial growth inhibition incubated for 24 hrs by CLSI based broth dilution method.
The test system of assay [22] is Staphylococcus aureus. Put plainly: Antibacterial activity against Staphylococcus aureus ATCC 43300 assessed as bacterial growth inhibition incubated for 24 hrs by CLSI based broth dilution method.
Assay [23] has as its system Staphylococcus aureus. Put plainly: Potency index, ratio of Pleuromutilin MIC to test compound MIC for antibacterial activity against Staphylococcus aureus ATCC 29213 incubated for 24 hrs by CLSI based broth dilution method.
Assay [24] has as its system Staphylococcus aureus. Put plainly: Antibacterial activity against Staphylococcus aureus clinical isolate AD3 assessed as bacterial growth inhibition incubated for 24 hrs by CLSI based broth dilution method.
The subject of assay [25] is Staphylococcus aureus. Put plainly: Potency index, ratio of Pleuromutilin MIC to test compound MIC for antibacterial activity against Staphylococcus aureus clinical isolate AD3 incubated for 24 hrs by CLSI based broth dilution method.
Assay [26] concerns Staphylococcus aureus. The assay can be described thus: Potency index, ratio of azithromycin MIC to test compound MIC for antibacterial activity against penicillin-resistant Staphylococcus aureus ATCC 31007 assessed as bacterial growth inhibition incubated for 24 hrs by CLSI based broth microdilution method.
The subject of assay [27] is Staphylococcus aureus. The assay can be described thus: Potency index, ratio of azithromycin MIC to test compound MIC for antibacterial activity against methicillin-resistant Staphylococcus aureus ATCC 43300 assessed as bacterial growth inhibition incubated for 24 hrs by CLSI based broth microdilution method.
Assay [28] deals with Streptococcus pyogenes. Put plainly: Potency index, ratio of azithromycin MIC to test compound MIC for antibacterial activity against erythromycin-resistant Streptococcus pyogenes clinical isolate 2 assessed as bacterial growth inhibition incubated for 24 hrs by CLSI based broth microdilution method.
Assay [29] relates to Staphylococcus aureus. The assay can be described thus: Antibacterial activity against penicillin-resistant Staphylococcus aureus ATCC 31007 assessed as bacterial growth inhibition incubated for 24 hrs by CLSI based broth microdilution method.
In assay [30] the test system is Escherichia coli. Put plainly: Antibacterial activity against Escherichia coli clinical isolate assessed as bacterial growth inhibition by disk diffusion method.
Assay [31] deals with Streptococcus pneumoniae. The assay can be described thus: Potency index, ratio of azithromycin MIC to test compound MIC for antibacterial activity against erythromycin-resistant Streptococcus pneumoniae B1 expressing ermB assessed as bacterial growth inhibition incubated for 24 hrs by CLSI based broth microdilution method.
Assay [32] concerns Staphylococcus aureus. Put plainly: Antibacterial activity against Staphylococcus aureus clinical isolate assessed as bacterial growth inhibition by disk diffusion method.
The test system of assay [33] is Streptococcus pneumoniae. The assay can be described thus: Antibacterial activity against erythromycin-resistant Streptococcus pneumoniae AB11 expressing ermB/mefA assessed as bacterial growth inhibition incubated for 24 hrs by CLSI based broth microdilution method.
In assay [34] the test system is Staphylococcus aureus. Put plainly: Antibacterial activity against methicillin-resistant Staphylococcus aureus ATCC 43300 assessed as bacterial growth inhibition incubated for 24 hrs by CLSI based broth microdilution method.
For assay [35], the system named is Streptococcus pyogenes. The assay can be described thus: Antibacterial activity against erythromycin-resistant Streptococcus pyogenes clinical isolate 2 assessed as bacterial growth inhibition incubated for 24 hrs by CLSI based broth microdilution method.
Assay [36] relates to Streptococcus pneumoniae. The assay can be described thus: Potency index, ratio of azithromycin MIC to test compound MIC for antibacterial activity against erythromycin-resistant Streptococcus pneumoniae AB11 expressing ermB/mefA assessed as bacterial growth inhibition incubated for 24 hrs by CLSI based broth microdilution method.
Assay [37] concerns Streptococcus pneumoniae. The assay can be described thus: Antibacterial activity against erythromycin-resistant Streptococcus pneumoniae B1 expressing ermB assessed as bacterial growth inhibition incubated for 24 hrs by CLSI based broth microdilution method.
Assay [38] concerns Staphylococcus aureus. The assay can be described thus: Antibacterial activity against methicillin-resistant Staphylococcus aureus assessed as bacterial growth inhibition by agar dilution method.
Assay [39] relates to Bacillus subtilis. Put plainly: Antibacterial activity against Bacillus subtilis assessed as bacterial growth inhibition.
Assay [40] concerns Staphylococcus epidermidis. The assay can be described thus: Antibacterial activity against Staphylococcus epidermidis assessed as bacterial growth inhibition by broth dilution method.
The test system of assay [41] is Bacillus subtilis. The assay can be described thus: Antibacterial activity against Bacillus subtilis assessed as bacterial growth inhibition incubated for 18 to 20 hrs by broth microdilution method. Particulars: time 18-20 hrs.
Assay [42] relates to Staphylococcus aureus. Put plainly: Antibacterial activity against Staphylococcus aureus assessed as bacterial growth inhibition.
Assay [43] has as its system Escherichia coli. Put plainly: Antibacterial activity against Escherichia coli assessed as bacterial growth inhibition.
For assay [44], the system named is Escherichia coli. Put plainly: Antibacterial activity against Escherichia coli JM109 assessed as bacterial growth inhibition incubated for 18 to 20 hrs by broth microdilution method. To be noted: time 18-20 hrs.

Values after ≈ are worked out from the molar mass of the structure shown. A value given as a limit tells only on which side of the number the result lay.

Take `CC(C)C[C@H](NC(=O)OC(C)(C)C)C(=O)OCc1cn(Cc2ccc(F)cc2)nn1`: the MIC with Pseudomonas aeruginosa [1], in the assay on Salmonella enterica, in the assay with Escherichia coli [2], in the assay with Bacillus subtilis [3] and in the assay with Staphylococcus aureus [4] was 3.12 µg/mL (≈ 7.42 µM) throughout.

Regarding `CC(=O)OC[C@@H]1O[C@H](n2cc(Cn3c(=O)cc(C)n(CCCCCCCC[P+](c4ccccc4)(c4ccccc4)c4ccccc4)c3=O)nn2)[C@@H](OC(C)=O)[C@H]1OC(C)=O.[Br-]`, the MIC in the assay on Staphylococcus aureus [5] and in the assay on Staphylococcus aureus [7] was 1 µg/mL throughout. Also, the Ratio in the assay on Staphylococcus aureus [6] worked out at 7.5.

In the case of `CC(=O)OC[C@@H]1O[C@H](n2cc(Cn3c(=O)c4ccccc4n(CCCCCCCCCC[P+](c4ccccc4)(c4ccccc4)c4ccccc4)c3=O)nn2)[C@@H](OC(C)=O)[C@H]1OC(C)=O.[Br-]`, the MIC in the assay with Staphylococcus aureus [5] and in the assay on Staphylococcus aureus [7] was 1 µg/mL throughout. The Ratio in the assay on Staphylococcus aureus [6] came out at 7.5.

As for `O=C(O)c1ccc(-n2cc(CNC(=O)c3cc4ccc(=O)oc4cc3O)nn2)cc1`, the minimal inhibitory concentration (MIC) in the assay with Staphylococcus aureus [8] is 3.75 µg/mL (≈ 9.23 µM); in the assay with Staphylococcus aureus [9], 0.65 µg/mL (≈ 1.6 µM); in the assay with Staphylococcus aureus [10], 0.16 µg/mL (≈ 0.394 µM).

Regarding `COc1cccc2cc(C(=O)c3cn(-c4ccc(Cl)cc4)nn3)c(=O)oc12`, the Ratio with Escherichia coli [11], in the assay on Staphylococcus aureus [12] and with Pseudomonas aeruginosa [15] was 2 in each case. The minimal inhibitory concentration (MIC) in the assay on Escherichia coli [13], in the assay with Staphylococcus aureus [14] and in the assay on Pseudomonas aeruginosa [16] was 6.25 µg/mL (≈ 16.4 µM) each time.

For `C=C[C@]1(C)C[C@@H](OC(=O)CN2CCN(C(=O)Cn3cc(CN4CCN(c5ccc([N+](=O)[O-])cc5)CC4)nn3)CC2)[C@@]2(C)[C@@H]3C(=O)CC[C@@]3(CC[C@@H]2C)[C@@H](C)[C@@H]1O`, the minimal inhibitory concentration (MIC) with Staphylococcus aureus [17], in the assay on Staphylococcus aureus [21], in the assay with Staphylococcus aureus [22] and in the assay on Staphylococcus aureus [24] was 1 µg/mL (≈ 1.29 µM) throughout. Besides, the Ratio with Staphylococcus aureus [18], with Staphylococcus aureus [19], in the assay with Staphylococcus aureus [23] and in the assay with Staphylococcus aureus [25] was 2 throughout. Besides, the Activity in the assay on Staphylococcus aureus [20] is listed as -2.07 log10CFU/ml.

Take `O=C(N[C@H](CO)[C@H](O)c1ccc([N+](=O)[O-])cc1)C(Cl)Cl` [CHLORAMPHENICOL]: the Ratio in the assay on Staphylococcus aureus [26], with Staphylococcus aureus [27], in the assay with Streptococcus pyogenes [28], in the assay with Streptococcus pneumoniae [31] and in the assay with Streptococcus pneumoniae [36] was above 16 in each case. In addition, the minimum inhibitory concentration (MIC) in the assay on Staphylococcus aureus [29] was above 256 µg/mL; in the assay with Escherichia coli [30], 22.4 µg/mL (≈ 69.3 µM); in the assay with Staphylococcus aureus [32], 11.6 µg/mL (≈ 35.9 µM); with Streptococcus pneumoniae [33], above 256 µg/mL; in the assay on Staphylococcus aureus [34], above 256 µg/mL; with Streptococcus pyogenes [35], above 256 µg/mL. In the assay with Streptococcus pneumoniae [37], the MIC was above 256 µg/mL.

With `COc1cc(/C=C/c2ccc(O)cc2)cc(OC)c1` [PTEROSTILBENE], the minimum inhibitory concentration (MIC) in the assay with Staphylococcus aureus [38] is 41 µg/mL (≈ 160 µM).

On to `CN[C@@H]1[C@H](O[C@H]2[C@H](O[C@H]3[C@H](O)[C@@H](O)[C@H](N=C(N)N)[C@@H](O)[C@@H]3N=C(N)N)O[C@@H](C)[C@]2(O)C=O)O[C@@H](CO)[C@H](O)[C@H]1O` [STREPTOMYCIN], for which the MIC with Staphylococcus aureus [5] was found to be 9.36 µg/mL (≈ 16.1 µM); in the assay with Bacillus subtilis [39] it was 6.25 µg/mL (≈ 10.7 µM); in assay [40], 4.68 µg/mL (≈ 8.05 µM); with Bacillus subtilis [41], 2 µg/mL (≈ 3.44 µM); in the assay on Staphylococcus aureus [42] it was 6.25 µg/mL (≈ 10.7 µM); with Escherichia coli [43], 6.25 µg/mL (≈ 10.7 µM). For the same compound, the minimum inhibitory concentration (MIC) with Escherichia coli [44] came to 1 µg/mL (≈ 1.72 µM); in the assay with Staphylococcus aureus [10], 1.89 µg/mL (≈ 3.25 µM).
